Experimental data published in patent US11214567B2, “Small molecule inhibitors of MYC and uses thereof” (The Regents of the University of Michigan, priority 2017, dated 2022).

How the values were obtained:
MIA PaCa-2 = test: MTT assay (cytotoxicity), MIA PaCa-2; type: cell-based; conditions: Homo sapiens, 72 h, drug concentration causing a 50% decrease in cell population
Description: (§1) The evaluation of cytotoxicity was based on the reduction of MTT dye by viable cells to give purple formazan products, which can be measured spectrophotometrically at 540 nm. One hundred eighty microliters of cancer cells were seeded into 96-well plates at 3,500-4,000 cells/well and incubated at 37° C. overnight before the indicated treatments. After 72 h, 20 μl of MTT solution (3 mg/ml) was added and incubated again for 3 h. After removal of media and solubilization of formazan crystals in 150 μL of DMSO, the absorbance was measured at 570 nm. Percentage of cell growth inhibition was expressed as 1-[(A−B)/(C−B)]×100% (A, B and C were the absorbance values from experimental, blank and control cells, respectively).
(§2) KJA derivatives were tested by the MTT assay against five human cancer cell lines including ovarian cancer cell lines (OVCAR-8, NCI/ADR-RES and SKOV3) and pancreatic cancer cell lines (MIA PaCa-2 and Pac-1). […] It is important to note that the NCI/ADR-RES cell line shares a large number of karyotypic abnormalities with OVCAR-8 but expresses high levels of MDR1 (multidrug resistance protein 1)/P-glycoprotein (see, e.g., Xu, S.; et al., Proceedings of the National Academy of Sciences 2012, 109, 16348-16353), resulting in resistance to multiple anticancer drugs in clinical use, including paclitaxel and doxorubicin.

Panc1 = test: MTT assay (cytotoxicity), Panc1; type: cell-based; conditions: Homo sapiens, PANC-1, 72 h, drug concentration causing a 50% decrease in cell population
Description: as §1, §2

NCI/ADR-RES = test: MTT assay (cytotoxicity), NCI/ADR-RES; type: cell-based, human; conditions: Homo sapiens, NCI/ADR-RES; MTT, 72 h; drug concentration causing a 50% decrease in cell population
Description: as §1, §2

SKOV3 = test: MTT assay (cytotoxicity), SKOV3; type: cell-based; conditions: Homo sapiens, SK-OV-3, 72 h, drug concentration causing a 50% decrease in cell population
Description: as §1, §2

OVCAR8 = test: MTT assay (cytotoxicity), OVCAR8; type: cell-based; conditions: Homo sapiens, OVCAR-8, 72 h, drug concentration causing a 50% decrease in cell population
Description: as §1, §2

c-MYC [1] = conditions: osteosarcoma, leukemia and lymphoma cells; cited from earlier work
C-MYC [2] = test: Western blotting of C-MYC protein levels in cancer cells; type: cell-based, human; conditions: NCI/ADR-RES cells; 0.5 μM; positive control
Description: Cells (5×10^5) were cultured in 6-well plate and treated with KJA03 at designated concentrations. After treatment, cells were lysed with cell lysis buffer on ice at 4° C., sonicated for 3 min, centrifuged (12,000 rpm, 10 min, 4° C.) and then, the supernatant was collected. Protein concentrations of supernatants were evaluated with BCA assay. Proteins were resolved in 10% SDS/PAGE and electrotransferred to Immun-Blot PVDF membrane (Bio-Rad). After blocking with 5% milk in TBST (Tris-buffered saline with 0.1% Tween 20), membranes were probed with primary antibodies (anti-PARP, anti-caspase 3 and anti-GAPDH) 1:1000 dilutions overnight at 4° C. Membranes were then washed with TBST (5 min×3), incubated with Dylight 800-conjugated secondary antibodies 1:7500 dilutions in 5% milk for 1 h at room temperature, and washed with TBST (5 min×3). Fluorescent signal was then scanned by Odyssey Imaging Systems (LI-COR Biosciences).
The effect of KJA03 on the MYC protein levels, including C-MYC and N-MYC, NCI/ADR-RES cells were treated with KJA03 at concentration of 0.1 (half IC50) and 0.2 (IC50) μM for 24 and 48 h. […] It has previously been reported that JQ1 treatment leads to down-regulation of c-MYC protein levels in osteosarcoma, leukemia and lymphoma cells (see, e.g., Mertz, J. A.; et al., Proceedings of the National Academy of Sciences 2011, 108, 16669-16674).
Experiments were conducted to further repeat the experiment and JQ1 was chosen as a positive control. As expected, expression of C-MYC was reduced by KJA03 at 24 h of treatment, correlated with previous experiment (FIG. 3).
Experiments were conducted that further performed a time-course experiment to evaluate C-MYC suppression including 2, 6, 8 24 and 48 h at concentration of 0.2 μM. To define the specificity of MYC suppression in further detail, we treated cells with a range of compound concentrations at 24 h. […] To determine whether KJA03 can suppress C-MYC in different cell lines, we next investigated the level of C-MYC in response to treatment with KJA03 at 0.2 μM using other three different OVCAR8, MIA PaCa-2 and Panc-1 cell lines.

Row | Structure (SMILES) | IC50 (MIA PaCa-2) [nM] | IC50 (Panc1) [nM] | IC50 (NCI/ADR-RES) [µM] | IC50 (SKOV3) [µM] | IC50 (OVCAR8) [µM] | c-MYC protein levels (c-MYC [1]) | C-MYC expression (C-MYC [2])
1 | COc1cc(-c2nc(-c3ccc(Cl)cc3)no2)c(-n2c(-c3ccc(Cl)cc3)noc2=O)cc1OC [KJA09, 3-(4-Chlorophenyl)-4-(2-(3-(4-chlorophenyl)-1,2,4-oxadiazol-5-yl)-4,5-dimethoxyphenyl)-1,2,4-oxadiazol-5(4H)-one] | > 30000 | > 30000 | > 30 | > 30 | > 30 |  | 
2 | Cc1sc2c(c1C)C(c1ccc(Cl)cc1)=N[C@@H](CC(=O)OC(C)(C)C)c1nnc(C)n1-2 [JQ1, reference compound] |  |  |  |  |  | down-regulation | did not inhibit C-MYC expression
3 | O=c1onc(-c2ccc(F)cc2)n1-c1ccccc1-c1nc(-c2ccc(F)cc2)no1 [KJA04, 3-(4-Fluorophenyl)-4-(2-(3-(4-fluorophenyl)-1,2,4-oxadiazol-5-yl)phenyl)-1,2,4-oxadiazol-5(4H)-one] | 5170 | 3220 | 7.63 ± 3.01 | 20.9 | 7.21 ± 1.55 |  | 
4 | COc1cc(-c2nc(-c3ccccc3)no2)c(-n2c(-c3ccccc3)noc2=O)cc1OC [KJA06, 4-(4,5-Dimethoxy-2-(3-phenyl-1,2,4-oxadiazol-5-yl)phenyl)-3-phenyl-1,2,4-oxadiazol-5(4H)-one] | > 30000 | > 30000 | > 30 | > 30 | > 30 |  | 
5 | COc1cc(-c2nc(-c3ccccc3Cl)no2)c(-n2c(-c3ccccc3Cl)noc2=O)cc1OC [KJA10, 3-(2-Chlorophenyl)-4-(2-(3-(2-chlorophenyl)-1,2,4-oxadiazol-5-yl)-4,5-dimethoxyphenyl)-1,2,4-oxadiazol-5(4H)-one] | 710 | 1080 | 2 ± 0.76 | 3.23 ± 0.37 | 0.71 ± 0.08 |  | 
6 | O=c1onc(-c2ccc(Cl)cc2)n1-c1ccccc1-c1nc(-c2ccc(Cl)cc2)no1 [KJA02, 3-(4-Chlorophenyl)-4-(2-(3-(4-chlorophenyl)-1,2,4-oxadiazol-5-yl)phenyl)-1,2,4-oxadiazol-5(4H)-one] | 1120 | 1510 | 4.16 ± 2.61 | 11.2 | 1.96 ± 0.42 |  | 
7 | CC(=O)O[C@H]1C(=O)[C@@]2(C)[C@H]([C@H](OC(=O)c3ccccc3)[C@]3(O)C[C@H](OC(=O)[C@H](O)[C@@H](NC(=O)c4ccccc4)c4ccccc4)C(C)=C1C3(C)C)[C@]1(OC(C)=O)CO[C@@H]1C[C@@H]2O [Paclitaxel, reference compound] | < 40 | < 40 | > 30 |  | < 0.04 |  | 
8 | O=c1onc(-c2ccccc2F)n1-c1ccccc1-c1nc(-c2ccccc2F)no1 [KJA17, 3-(2-Fluorophenyl)-4-(2-(3-(2-fluorophenyl)-1,2,4-oxadiazol-5-yl)phenyl)-1,2,4-oxadiazol-5(4H)-one] | 1430 | 3170 | 9.42 ± 1.61 | 25.6 | 9.12 ± 0.88 |  | 
9 | O=c1onc(-c2ccccc2)n1-c1ccccc1-c1nc(-c2ccccc2)no1 [KJA01, 3-Phenyl-4-(2-(3-phenyl-1,2,4-oxadiazol-5-yl)phenyl)-1,2,4-oxadiazol-5(4H)-one] | 2490 | 2160 | 4.31 ± 0.55 | 5.82 | 4.65 ± 2.05 |  | 
